The values below come from US9359405B2, “Antagonists of the interleukin-1 receptor” (Phlogo ApS, priority 2011, dated 2016).

No end group written: not given here.

One test has as its target T1, IL1RI (Homo sapiens, UniProt P14778).
T1 construct: The recombinant protein comprising the whole extracellular part of IIL1RI was immobilised on the surface of a CM5 sensor chip
T1 sequence (P14778 18-336 limits assumed): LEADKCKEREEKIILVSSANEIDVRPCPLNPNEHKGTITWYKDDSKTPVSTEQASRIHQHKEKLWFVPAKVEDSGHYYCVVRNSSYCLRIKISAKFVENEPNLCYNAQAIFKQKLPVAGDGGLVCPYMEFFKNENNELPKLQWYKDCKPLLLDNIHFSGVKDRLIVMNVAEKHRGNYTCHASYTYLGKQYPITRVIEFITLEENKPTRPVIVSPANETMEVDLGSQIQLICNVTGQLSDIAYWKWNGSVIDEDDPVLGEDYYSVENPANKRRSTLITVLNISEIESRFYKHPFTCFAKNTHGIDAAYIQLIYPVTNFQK
Kind of test: SPR (BiaCore) binding to immobilized IL1RI ectodomain. Particulars: 25° C., pH 7.4. Here is the method:
Binding analysis was performed using a BiaCore 2000 Instrument (BiaCore AB, Uppsala, Sweden) at 25° C. using 10 mM sodium phosphate (pH 7.4), 150 mM NaCl as running buffer. The flow-rate was 5 μl/min. Data were analysed by nonlinear curve fitting using the manufacturer's software. The recombinant protein comprising the whole extracellular part of IIL1RI was immobilised on the surface of a CM5 sensor chip by means of electrostatic interactions, and the peptide and the IL1β and IL1Ra proteins were injected at various concentrations. The curves corresponding to the difference between binding to peptides and a blank chip were used for analysis.
Background: SPR reads the build-up and loss of mass on a sensor chip optically.

For test [1], the system named is STAT signalling induced by IL6, HEK-Blue IL6 cells. Kind of test: Target specificity, HEK-Blue IL6 cells. Format: cell-based. An excerpt: IL1RI signaling assay: Commercially available Blue™ Cytokine Reporter Cell technology from InvivoGen (Denmark distributor: Sigma-Aldrich Denmark) was used. It is represented by an expanding family of engineered cell lines designed to provide a simple, rapid, and reliable method of monitoring the activation of signaling pathways induced by key cytokines. HEK-Blue™ IL1β cells are specifically engineered to selectively respond to IL1β, and they feature the secreted embryonic alkaline phosphatase (SEAP) reporter gene under the control of an NF-κB-inducible promoter. […] A target/receptor-specificity of the Ilantafin effect was verified employing HEK-Blue™ IL6 cells.

For test [2], the system named is collagen-induced arthritis (CIA). Kind of test: Collagen-induced arthritis in rats, treatment dpi 8-15 (Example 14). It is filed as in vivo, rat. To be noted: 10.0 mg/kg s.c. daily dpi 8-15. The method, then: Induction of CIA. The CIA study was performed on a total of 40 male Wistar rats with an average weight of 150 g at the beginning of the experiment. CIA was induced by subcutaneous (s.c.) injection of bovine collagen type II (CII, Sigma-Aldrich) solubilised in 0.05 M acetic acid (2 mg/ml), and then emulsified 1:1 with CFA (Sigma-Aldrich) containing […] heat-inactivated M. tuberculosis. Under inhalation anaesthesia (Isofluran, 3%) 250 μl of the emulsion containing 250 μg of CII and […] was injected (s.c.) at the tail base (post-immunization day, dpi 0).
Treatment design. At dpi 8, before onset of clinical signs, all animals were randomly divided into two groups, 20 rats per group, and were dosed daily during 8 days (dpi 8-15) with Ilantafin (10.0 mg/kg, s.c.) or vehicle (PBS, 1.0 ml/kg, s.c.). […]
Clinical scores. An observer blinded to treatment groups evaluated the severity of arthritis employing the following grading system: O— no redness or swelling in foot; 1—slight redness in foot or redness and swelling in single interfalangeal joints; 2—moderate swelling and redness in ankle and metatarsal part of foot; 3—marked swelling and redness of entire foot, restricted usage of foot in locomotion; 4—marked swelling and redness of entire foot, impossibility of usage foot in locomotion and rearing. […]

For SGRKSSKMQA [Ilantafin], the “affinity of interaction with immobilized ectodomain of IL1RI” value at IL1RI is “within the same order of magnitude as the binding affinities of IL1β and IL1Ra to IL1RI”. Also, the “effect on STAT signalling induced by IL6” value in test [1] was “does not inhibit signaling induced by IL6”. In test [2], the “morbidity (percentage of animals reached clinical index 7)” value is “significantly reduced morbidity by dpi 12” and the “severity of CIA (clinical score)” value is recorded as “attenuated severity of CIA on dpi 13-15”.
